# Assay results taken from patent US20250171459A1, “2-METHYL-4',5'-DIHYDROSPIRO[PIPERIDINE-4,7'-THIENO[2,3-C]PYRAN] DERIVATIVES AS INHIBITORS OF APOL1 AND METHODS OF USING SAME” (Vertex Pharmaceuticals Incorporated, priority 2022, published 2025).
# Molecular target: T1, APOL1 (Homo sapiens, UniProt O14791)
# T1 sequence (O14791 1-398 S342G/I384M): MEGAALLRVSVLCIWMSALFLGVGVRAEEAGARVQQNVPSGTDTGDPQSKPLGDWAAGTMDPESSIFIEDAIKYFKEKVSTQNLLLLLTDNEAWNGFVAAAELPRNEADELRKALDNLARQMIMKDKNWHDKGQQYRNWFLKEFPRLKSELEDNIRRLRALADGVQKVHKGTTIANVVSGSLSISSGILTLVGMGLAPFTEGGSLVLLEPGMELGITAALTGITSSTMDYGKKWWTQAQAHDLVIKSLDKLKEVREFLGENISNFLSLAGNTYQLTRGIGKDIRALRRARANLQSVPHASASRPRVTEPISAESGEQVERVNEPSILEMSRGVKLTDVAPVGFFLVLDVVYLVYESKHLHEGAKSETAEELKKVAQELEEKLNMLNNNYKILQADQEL
# Experiment: MultiTox-Fluor Multiplex Cytotoxicity Assay in tet-inducible APOL1 T-REx-HEK293 cells (cell rescue, ratio of dead to live cells)
# Assay type: cell-based
# Settings: tet-inducible transgenic APOL1 T-REx-HEK293 cell lines, 50 ng/mL tet, 24 hours; read-out: IP50 (i.e., IC50 for cell proliferation)
# Outline: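 T-REx-HEK293 cells with tet-inducible APOL1 were treated with compound (10 μM top, 10-point 3-fold dilution, duplicate) plus 50 ng/mL tetracycline for 24 h at 37° C, in DMEM with 2% tet-free FBS. MultiTox-Fluor protease signals gave a dead/live ratio, normalized to no tet (100% viability) and tet alone (0%).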
row,Structure (SMILES),IC50 [nM]
1,"CC(C)Cn1cc(CN2CC[C@]3(C[C@@H]2C)OCCc2c3sc(Cl)c2CO)cn1 [Compound 759, [(2′S, 7R)-2-chloro-1′-[(1-isobutylpyrazol-4-yl)methyl]-2′-methyl-spiro[4,5-dihydrothieno[2,3-c]pyran-7,4′-piperidine]-3-yl]methanol]",100 to 500
2,CCn1cc(CN2CC[C@]3(C[C@@H]2C)OCCc2c3sc(Cl)c2CO)cn1 [Compound 760],100 to 500
3,C[C@H]1C[C@@]2(CCN1Cc1cnn(CC3CCOCC3)c1)OCCc1c2sc(Cl)c1CO [Compound 761],100 to 500
4,"COCc1c(Cl)sc2c1CCO[C@@]21CCN(Cc2cnn(CCS(C)(=O)=O)c2)[C@@H](C)C1 [Compound 762, (2′S, 7R)-2-chloro-3-(methoxymethyl)-2′-methyl-1′-[[1-(2-methylsulfonylethyl)pyrazol-4-yl]methyl]spiro[4,5-dihydrothieno[2,3-c]pyran-7,4′-piperidine]]",< 100
5,"COCc1c(C(F)F)sc2c1CCO[C@@]21CCN(Cc2cnn(CCS(C)(=O)=O)c2)[C@@H](C)C1 [Compound 763, (2′S, 7R)-2-(difluoromethyl)-3-(methoxymethyl)-2′-methyl-1′-[[1-(2-methylsulfonylethyl)pyrazol-4-yl]methyl]spiro[4,5-dihydrothieno[2,3-c]pyran-7,4′-piperidine]]",< 100
6,"C[C@H]1C[C@@]2(CCN1Cc1cnn(CCS(C)(=O)=O)c1)OCCc1c2sc(C(F)F)c1CO [Compound 764, [(2′S, 7R)-2-(difluoromethyl)-2′-methyl-1′-[[1-(2-methylsulfonylethyl)pyrazol-4-yl]methyl]spiro[4,5-dihydrothieno[2,3-c]pyran-7,4′-piperidine]-3-yl]methanol]",< 100
7,"Cc1sc2c(c1CO)CCO[C@@]21CCN(Cc2cnn(CCS(C)(=O)=O)c2)[C@@H](C)C1 [Compound 765, [(2′S, 7R)-2,2′-dimethyl-1′-[[1-(2-methylsulfonylethyl)pyrazol-4-yl]methyl]spiro[4,5-dihydrothieno[2,3-c]pyran-7,4′-piperidine]-3-yl]methanol]",< 100
8,"C[C@H]1C[C@@]2(CCN1Cc1cccc(Cl)c1O)OC[C@H](O)c1cc(Cl)sc12 [Compound 766, (2′S,4R,7R)-2-chloro-1′-[(3-chloro-2-hydroxy-phenyl)methyl]-2′-methyl-spiro[4,5-dihydrothieno[2,3-c]pyran-7,4′-piperidine]-4-ol]",500 to 1000
9,"C[C@H]1C[C@@]2(CCN1Cc1cnn(CCS(C)(=O)=O)c1)OCC(O)c1cc(Cl)sc12 (stereo partly drawn) [Compound 767, (2′S,7R)-2-chloro-2′-methyl-1′-[[1-(2-methylsulfonylethyl)pyrazol-4-yl]methyl]spiro[4,5-dihydrothieno[2,3-c]pyran-7,4′-piperidine]-4-ol]",< 100
10,Cc1ncccc1CN1CC[C@]2(C[C@@H]1C)OC[C@H](O)c1cc(Cl)sc12 [Compound 770],100 to 500
11,C[C@H]1C[C@@]2(CCN1Cc1cccc(OCC(N)=O)c1)OC[C@H](O)c1cc(Cl)sc12 [Compound 771],100 to 500
12,COc1ccc(CN2CC[C@]3(C[C@@H]2C)OC[C@H](O)c2cc(Cl)sc23)cc1OCC(N)=O [Compound 772],< 100
13,COc1cc(OCC(N)=O)ccc1CN1CC[C@]2(C[C@@H]1C)OC[C@H](O)c1cc(Cl)sc12 [Compound 773],< 100
14,C[C@H]1C[C@@]2(CCN1Cc1cc(F)cc(F)c1O)OC[C@H](O)c1cc(Cl)sc12 [Compound 774],500 to 1000
15,C[C@H]1C[C@@]2(CCN1Cc1ccc(OCCO)cc1)OC[C@H](O)c1cc(Cl)sc12 [Compound 775],< 100
16,COc1cc(CN2CC[C@]3(C[C@@H]2C)OC[C@H](O)c2cc(Cl)sc23)ccc1OCC(N)=O [Compound 776],< 100
17,C[C@H]1C[C@@]2(CCN1Cc1ccc(N3CCCC3=O)cc1)OC[C@H](O)c1cc(Cl)sc12 [Compound 777],< 100
18,C[C@H]1C[C@@]2(CCN1Cc1cnccn1)OC[C@H](O)c1cc(Cl)sc12 [Compound 778],500 to 1000
19,C[C@H]1C[C@@]2(CCN1CCC1CCOCC1)OC[C@H](O)c1cc(Cl)sc12 [Compound 779],500 to 1000
20,C[C@H]1C[C@@]2(CCN1Cc1ccc(NS(C)(=O)=O)cc1)OC[C@H](O)c1cc(Cl)sc12 [Compound 780],< 100
21,Cc1cc(CN2CC[C@]3(C[C@@H]2C)OC[C@H](O)c2cc(Cl)sc23)nn1C [Compound 781],500 to 1000
22,COc1cccc(CN2CC[C@]3(C[C@@H]2C)OC[C@H](O)c2cc(Cl)sc23)n1 [Compound 782],500 to 1000

row,Structure (SMILES),IC50 [nM]
1,COc1cnc(CN2CC[C@]3(C[C@@H]2C)OC[C@H](O)c2cc(Cl)sc23)cn1 [Compound 783],100 to 500
2,C[C@H]1C[C@@]2(CCN1Cc1cncc(F)c1)OC[C@H](O)c1cc(Cl)sc12 [Compound 784],100 to 500
3,CC(O)CCN1CC[C@]2(C[C@@H]1C)OC[C@H](O)c1cc(Cl)sc12 (some centres unmarked) [Compound 785],500 to 1000
4,C[C@H]1C[C@@]2(CCN1Cc1cn3c(n1)CCC3)OC[C@H](O)c1cc(Cl)sc12 [Compound 786],500 to 1000
5,C[C@H]1C[C@@]2(CCN1Cc1ccnn1C)OC[C@H](O)c1cc(Cl)sc12 [Compound 787],500 to 1000
6,Cc1ccc(CN2CC[C@]3(C[C@@H]2C)OC[C@H](O)c2cc(Cl)sc23)c(C)n1 [Compound 788],100 to 500
7,C[C@H]1C[C@@]2(CCN1CC1CCOCC1)OC[C@H](O)c1cc(Cl)sc12 [Compound 789],500 to 1000
8,C[C@H]1C[C@@]2(CCN1Cc1cn(-c3ncccn3)cn1)OC[C@H](O)c1cc(Cl)sc12 [Compound 790],100 to 500
9,C[C@H]1C[C@@]2(CCN1Cc1ccc(O)nc1)OC[C@H](O)c1cc(Cl)sc12 [Compound 791],< 100
10,C[C@H]1C[C@@]2(CCN1Cc1ccc(F)cn1)OC[C@H](O)c1cc(Cl)sc12 [Compound 792],100 to 500
11,Cc1ncc(CN2CC[C@]3(C[C@@H]2C)OC[C@H](O)c2cc(Cl)sc23)cn1 [Compound 793],100 to 500
12,C[C@H]1C[C@@]2(CCN1CC1CCN(S(C)(=O)=O)CC1)OC[C@H](O)c1cc(Cl)sc12 [Compound 796],100 to 500
13,COCCc1ncc(CN2CC[C@]3(C[C@@H]2C)OC[C@H](O)c2cc(Cl)sc23)cn1 [Compound 797],100 to 500
14,C[C@H]1C[C@@]2(CCN1Cc1ccc(OCC(=O)N3CCOCC3)cc1)OC[C@H](O)c1cc(Cl)sc12 [Compound 798],< 100
15,CC(=O)Nc1ccc(CN2CC[C@]3(C[C@@H]2C)OC[C@H](O)c2cc(Cl)sc23)cc1 [Compound 799],< 100
16,C[C@H]1C[C@@]2(CCN1Cc1cnc(N3CCOCC3)nc1)OC[C@H](O)c1cc(Cl)sc12 [Compound 800],< 100
17,C[C@H]1C[C@@]2(CCN1Cc1cccc(F)c1O)OC[C@H](O)c1cc(Cl)sc12 [Compound 801],500 to 1000
18,C[C@H]1C[C@@]2(CCN1Cc1ccc(S(C)(=O)=O)cc1)OC[C@H](O)c1cc(Cl)sc12 [Compound 802],100 to 500
19,C[C@H]1C[C@@]2(CCN1Cc1cccc(OCCO)c1)OC[C@H](O)c1cc(Cl)sc12 [Compound 803],100 to 500
20,COc1ccc(CN2CC[C@]3(C[C@@H]2C)OC[C@H](O)c2cc(Cl)sc23)cn1 [Compound 804],< 100
21,COc1nccc(CN2CC[C@]3(C[C@@H]2C)OC[C@H](O)c2cc(Cl)sc23)n1 [Compound 805],500 to 1000
22,COc1cncc(CN2CC[C@]3(C[C@@H]2C)OC[C@H](O)c2cc(Cl)sc23)c1 [Compound 806],100 to 500
